Measured values as given in ChEMBL document CHEMBL6127119 (J Med Chem, 2024).
Values after ≈ are worked out from the molar mass of the structure shown.

How the values were obtained:
HEK-293T [1] = test: Cytotoxicity against HEK293T cells at 100 ug/ml incubated for 72 hrs by MTT assay; format: toxicity, cell-based; details: human, dose 100 µg/ml
Enterococcus faecium [2] = test: Antibacterial activity against vancomycin-resistant Enterococcus faecium harboring VanB phenotype incubated for 16 to 24 hrs by CLSI based broth microdilution method; format: functional; details: time 16-24 hrs
Escherichia coli [3] = test: Antibacterial activity against Escherichia coli AB1157 incubated for 16 to 24 hrs by CLSI based broth microdilution method; format: functional; details: time 16-24 hrs
Staphylococcus aureus [4] = test: Antibacterial activity against methicillin-susceptible Staphylococcus aureus incubated for 16 to 24 hrs by CLSI based broth microdilution method; format: functional; details: time 16-24 hrs
Enterococcus faecium [5] = test: Antibacterial activity against vancomycin-resistant Enterococcus faecium harboring VanM phenotype incubated for 16 to 24 hrs by CLSI based broth microdilution method; format: functional; details: time 16-24 hrs
Enterococcus faecium [6] = test: Antibacterial activity against vancomycin-resistant Enterococcus faecium harboring VanA phenotype incubated for 16 to 24 hrs by CLSI based broth microdilution method; format: functional; details: time 16-24 hrs
Acinetobacter baumannii [7] = test: Antibacterial activity against Carbapenem-resistant Acinetobacter baumannii clinical isolate incubated for 16 to 24 hrs by CLSI based broth microdilution method; format: functional; details: time 16-24 hrs
Klebsiella pneumoniae = test: Antibacterial activity against Klebsiella pneumoniae clinical isolate incubated for 16 to 24 hrs by CLSI based broth microdilution method; format: functional; details: time 16-24 hrs
Pseudomonas aeruginosa = test: Antibacterial activity against Pseudomonas aeruginosa PAO1 incubated for 16 to 24 hrs by CLSI based broth microdilution method; format: functional; details: time 16-24 hrs
Staphylococcus aureus [8] = test: Antibacterial activity against vancomycin-intermediate Staphylococcus aureus incubated for 16 to 24 hrs by CLSI based broth microdilution method; format: functional; details: time 16-24 hrs
HEK-293T [9] = test: Cytotoxicity against HEK293T cells upto […] incubated for 72 hrs by MTT assay; format: toxicity, cell-based; details: human
Staphylococcus aureus [10] = test: Antibacterial activity against methicillin-resistant Staphylococcus aureus clinical isolate incubated for 16 to 24 hrs by CLSI based broth microdilution method; format: functional; details: time 16-24 hrs
Staphylococcus hominis = test: Antibacterial activity against methicillin-resistant Staphylococcus hominis clinical isolate incubated for 16 to 24 hrs by CLSI based broth microdilution method; format: functional; details: time 16-24 hrs
[11] = tested on: Staphylococcus haemolyticus; test: Antibacterial activity against methicillin-resistant Staphylococcus haemolyticus clinical isolate incubated for 16 to 24 hrs by CLSI based broth microdilution method; format: functional; details: time 16-24 hrs
Enterococcus faecalis = test: Antibacterial activity against Enterococcus faecalis clinical isolate incubated for 16 to 24 hrs by CLSI based broth microdilution method; format: functional; details: time 16-24 hrs
Enterococcus faecium [12] = test: Antibacterial activity against vancomycin-resistant Enterococcus faecium harboring VanA phenotype clinical isolate incubated for 16 to 24 hrs by CLSI based broth microdilution method; format: functional; details: time 16-24 hrs
Enterococcus faecium [13] = test: Antibacterial activity against Enterococcus faecium clinical isolate incubated for 16 to 24 hrs by CLSI based broth microdilution method; format: functional; details: time 16-24 hrs
[14] = tested on: Staphylococcus epidermidis; test: Antibacterial activity against methicillin-resistant Staphylococcus epidermidis clinical isolate incubated for 16 to 24 hrs by CLSI based broth microdilution method; format: functional; details: time 16-24 hrs
Enterococcus faecium [15] = test: Potency index, ratio of Norvancomycin MIC to test compound MIC for vancomycin-resistant Enterococcus faecium incubated for 16 to 24 hrs by CLSI based broth microdilution method; format: functional; details: time 16-24 hrs
Enterococcus faecium [16] = test: Potency index, ratio of Vancomycin MIC to test compound MIC for vancomycin-resistant Enterococcus faecium incubated for 16 to 24 hrs by CLSI based broth microdilution method; format: functional; details: time 16-24 hrs
Escherichia coli [17] = test: Potency index, ratio of Vancomycin MIC to test compound MIC for Escherichia coli […] incubated for 16 to 24 hrs by CLSI based broth microdilution method; format: functional; details: time 16-24 hrs
Acinetobacter baumannii [18] = test: Potency index, ratio of Norvancomycin MIC to test compound MIC for Carbapenem-resistant Acinetobacter baumannii clinical isolate incubated for 16 to 24 hrs by CLSI based broth microdilution method; format: functional; details: time 16-24 hrs
Escherichia coli [19] = test: Potency index, ratio of Norvancomycin MIC to test compound MIC for Escherichia coli […] incubated for 16 to 24 hrs by CLSI based broth microdilution method; format: functional; details: time 16-24 hrs
Staphylococcus aureus [20] = test: Potency index, ratio of Vancomycin MIC to test compound MIC for vancomycin-intermediate Staphylococcus aureus incubated for 16 to 24 hrs by CLSI based broth microdilution method; format: functional; details: time 16-24 hrs
Acinetobacter baumannii [21] = test: Potency index, ratio of Vancomycin MIC to test compound MIC for Carbapenem-resistant Acinetobacter baumannii clinical isolate incubated for 16 to 24 hrs by CLSI based broth microdilution method; format: functional; details: time 16-24 hrs
Staphylococcus aureus [22] = test: Potency index, ratio of Norvancomycin MIC to test compound MIC for vancomycin-intermediate Staphylococcus aureus incubated for 16 to 24 hrs by CLSI based broth microdilution method; format: functional; details: time 16-24 hrs
Staphylococcus aureus [23] = test: Induction of drug resistance in vancomycin-sensitive Staphylococcus aureus MRSA252 assessed as fold increase in MIC measured after 16 days of serial passages by broth microdilution method; format: functional; details: time 16 day

Structure (SMILES)	MIC (Enterococcus faecium [2]) [µg/mL]	MIC (Escherichia coli [3]) [µg/mL]	MIC (Staphylococcus aureus [4]) [µg/mL]	MIC (Enterococcus faecium [5]) [µg/mL]	MIC (Enterococcus faecium [6]) [µg/mL]	MIC (Acinetobacter baumannii [7]) [µg/mL]	MIC (Klebsiella pneumoniae) [µg/mL]	MIC (Pseudomonas aeruginosa) [µg/mL]	MIC (Staphylococcus aureus [8]) [µg/mL]	also measured
CN[C@H](CC(C)C)C(=O)N[C@H]1C(=O)N[C@@H](CC(N)=O)C(=O)N[C@H]2C(=O)N[C@H]3C(=O)N[C@H](C(=O)N[C@H](C(=O)NCCCCCCCCN)c4cc(O)cc(O)c4-c4cc3ccc4O)[C@H](O)c3ccc(c(Cl)c3)Oc3cc2cc(c3O[C@@H]2O[C@H](CO)[C@@H](O)[C@H](O)[C@H]2O[C@H]2C[C@](C)(N)[C@H](O)[C@H](C)O2)Oc2ccc(cc2Cl)[C@H]1O	16 (≈ 10.2 µM)	64 (≈ 40.6 µM)	1 (≈ 0.635 µM)	64 (≈ 40.6 µM)	64 (≈ 40.6 µM)	128 (≈ 81.2 µM)	> 128	128 (≈ 81.2 µM)	2 (≈ 1.27 µM)	Activity (HEK-293T [1]): Non-Toxic; Activity (HEK-293T [9]): Non-Toxic
CN[C@H](CC(C)C)C(=O)N[C@H]1C(=O)N[C@@H](CC(N)=O)C(=O)N[C@H]2C(=O)N[C@H]3C(=O)N[C@H](C(=O)N[C@H](C(=O)NCCCCCCCCNC(=N)N)c4cc(O)cc(O)c4-c4cc3ccc4O)[C@H](O)c3ccc(c(Cl)c3)Oc3cc2cc(c3O[C@@H]2O[C@H](CO)[C@@H](O)[C@H](O)[C@H]2O[C@H]2C[C@](C)(N)[C@H](O)[C@H](C)O2)Oc2ccc(cc2Cl)[C@H]1O	8 (≈ 4.95 µM)	16 (≈ 9.89 µM)	0.25 (≈ 0.155 µM)	16 (≈ 9.89 µM)	8 (≈ 4.95 µM)	32 (≈ 19.8 µM)	128 (≈ 79.1 µM)	128 (≈ 79.1 µM)	1 (≈ 0.618 µM)	Activity (HEK-293T [1]): Non-Toxic; Activity (HEK-293T [9]): Non-Toxic
CN[C@H](CC(C)C)C(=O)N[C@H]1C(=O)N[C@@H](CC(N)=O)C(=O)N[C@H]2C(=O)N[C@H]3C(=O)N[C@H](C(=O)N[C@H](C(=O)O)c4cc(O)cc(O)c4-c4cc3ccc4O)[C@H](O)c3ccc(c(Cl)c3)Oc3cc2cc(c3O[C@@H]2O[C@H](CO)[C@@H](O)[C@H](O)[C@H]2O[C@H]2C[C@](C)(N)[C@H](O)[C@H](C)O2)Oc2ccc(cc2Cl)[C@H]1O [VANCOMYCIN]										MIC (Staphylococcus aureus [10]): 0.25 µg/mL (≈ 0.173 µM); MIC (Staphylococcus hominis): 1 µg/mL (≈ 0.69 µM); MIC [11]: 1 µg/mL (≈ 0.69 µM); MIC (Enterococcus faecalis): ≤ 0.03 µg/mL; MIC (Enterococcus faecium [12]): > 64 µg/mL
CN[C@H](CC(C)C)C(=O)N[C@H]1C(=O)N[C@@H](CC(N)=O)C(=O)N[C@H]2C(=O)N[C@H]3C(=O)N[C@H](C(=O)N[C@H](C(=O)O)c4cc(O)cc(O)c4-c4cc3ccc4O)[C@H](O[C@H]3C[C@](C)(N)[C@@H](O)[C@H](C)O3)c3ccc(c(Cl)c3)Oc3cc2cc(c3O[C@@H]2O[C@H](CO)[C@@H](O)[C@H](O)[C@H]2O[C@H]2C[C@](C)(NCc3ccc(-c4ccc(Cl)cc4)cc3)[C@@H](O)[C@H](C)O2)Oc2ccc(cc2Cl)[C@H]1O [ORITAVANCIN]										MIC (Staphylococcus aureus [10]): 0.12 µg/mL (≈ 0.0669 µM); MIC (Staphylococcus hominis): 0.12 µg/mL (≈ 0.0669 µM); MIC [11]: 0.06 µg/mL (≈ 0.0335 µM); MIC (Enterococcus faecium [13]): ≤ 0.03 µg/mL; MIC (Enterococcus faecalis): ≤ 0.03 µg/mL; MIC [14]: 0.12 µg/mL (≈ 0.0669 µM)
CC(C)C[C@@H](N)C(=O)N[C@H]1C(=O)N[C@@H](CC(N)=O)C(=O)N[C@H]2C(=O)N[C@H]3C(=O)N[C@H](C(=O)N[C@H](C(=O)NCc4ccc(-c5cccc(CNC(=N)N)c5)cc4)c4cc(O)cc(O)c4-c4cc3ccc4O)[C@H](O)c3ccc(c(Cl)c3)Oc3cc2cc(c3O[C@@H]2O[C@H](CO)[C@@H](O)[C@H](O)[C@H]2O[C@H]2C[C@](C)(N)[C@H](O)[C@H](C)O2)Oc2ccc(cc2Cl)[C@H]1O	2 (≈ 1.2 µM)	16 (≈ 9.57 µM)	≤ 0.063	1 (≈ 0.598 µM)	2 (≈ 1.2 µM)	64 (≈ 38.3 µM)	> 128	128 (≈ 76.6 µM)	0.25 (≈ 0.15 µM)	Ratio (Enterococcus faecium [15]): 2; Ratio (Enterococcus faecium [16]): 2; Ratio (Escherichia coli [17]): 2; Ratio (Acinetobacter baumannii [18]): 2; Ratio (Escherichia coli [19]): 2; Ratio (Staphylococcus aureus [20]): 2; Ratio (Acinetobacter baumannii [21]): 2; Ratio (Staphylococcus aureus [22]): 2
CC(C)C[C@@H](N)C(=O)N[C@H]1C(=O)N[C@@H](CC(N)=O)C(=O)N[C@H]2C(=O)N[C@H]3C(=O)N[C@H](C(=O)N[C@H](C(=O)NCc4ccc(-c5ccccc5CNC(=N)N)cc4)c4cc(O)cc(O)c4-c4cc3ccc4O)[C@H](O)c3ccc(c(Cl)c3)Oc3cc2cc(c3O[C@@H]2O[C@H](CO)[C@@H](O)[C@H](O)[C@H]2O[C@H]2C[C@](C)(N)[C@H](O)[C@H](C)O2)Oc2ccc(cc2Cl)[C@H]1O	2 (≈ 1.2 µM)	8 (≈ 4.79 µM)	≤ 0.063	2 (≈ 1.2 µM)	4 (≈ 2.39 µM)	16 (≈ 9.57 µM)	> 128	32 (≈ 19.1 µM)	0.5 (≈ 0.299 µM)	Ratio (Enterococcus faecium [15]): 2; Ratio (Enterococcus faecium [16]): 2; Ratio (Escherichia coli [17]): 2; Ratio (Acinetobacter baumannii [18]): 2; Ratio (Escherichia coli [19]): 2; Ratio (Staphylococcus aureus [20]): 2; Ratio (Acinetobacter baumannii [21]): 2; Ratio (Staphylococcus aureus [22]): 2
CCCCCCCCCC(=O)N[C@@H](Cc1c[nH]c2ccccc12)C(=O)N[C@@H](CC(N)=O)C(=O)N[C@@H](CC(=O)O)C(=O)N[C@@H]1C(=O)NCC(=O)N[C@@H](CCCN)C(=O)N[C@@H](CC(=O)O)C(=O)N[C@H](C)C(=O)N[C@@H](CC(=O)O)C(=O)NCC(=O)N[C@H](CO)C(=O)N[C@@H]([C@@H](C)CC(=O)O)C(=O)N[C@@H](CC(=O)c2ccccc2N)C(=O)O[C@@H]1C	8 (≈ 4.94 µM)	128 (≈ 79 µM)	2 (≈ 1.23 µM)	8 (≈ 4.94 µM)	8 (≈ 4.94 µM)	128 (≈ 79 µM)	> 128	> 128	4 (≈ 2.47 µM)	fold change (FC) (Staphylococcus aureus [23]): 8
